Data from PMC5048338, “Discovery of 4,6-disubstituted pyrimidines as potent inhibitors of the heat shock factor 1 (HSF1) stress pathway and CDK9” (Medchemcomm, 2016).
Read-outs that look alike come from different tables or passages of the source.

Key:
CDK2/cyclinE = CDK2/cyclinE (Homo sapiens, UniProt P24941); test: CDK2 enzyme assay: off-chip mobility shift assay; assay type: biochemical; design: purchased Upstate/Millipore; settings: for IC50: biochemical, CDK2/cyclinE, average of two determinations; for fold drop in potency in the CDK2 assay / fold improvement in CDK2 inhibition: relative to compound 3
Protocol: CDK2 enzyme assay: Off-chip Mobility SHIFT Assay
All reagents were purchased from Sigma-Aldrich unless otherwise specified. Inhibition of CDK2/cyclinE activity was quantified using an off-chip incubation, mobility shift assay, which uses a microfluidic chip (Caliper Life Sciences) to measure the conversion of a fluorescent peptide substrate to phosphorylated product. An Off-chip Mobility Shift Chip with 12 sippers (Caliper Life Sciences) was prepared for use according to the manufacturer’s instructions using Coating Reagent #3 (Caliper Life Sciences). The off-chip incubation was carried out in white, 384-well, flat bottom, low volume assay plates (Greiner). 5 µL peptide mix (1.5 µM substrate peptide (fluorescein-QSPKKG-CONH2, Bachem) and 90 µM ATP in kinase base buffer (50 mM HEPES, pH7.5 (Calbiochem), 0.06% CHAPSO)) were added to each well of the prepared compound plates which contained 120 nL compound stock solution per well. The reaction was then initiated by the addition of 6 µL enzyme mix (1.0 nM CDK2/cyclin E (Upstate/Millipore), 1.0 mM DTT and 5.0 mM MgCl2 in kinase base buffer). After incubation for 60 min at room temperature, each reaction was terminated by the addition of 10µL of stop solution containing 100 mM HEPES pH 7.5 (Calbiochem), 0.033% Brij-35, 0.22% Coating Reagent #3 (Caliper Life Sciences), 44 mM EDTA and 5 % DMSO. Reaction products were analysed using a Caliper LabChip LC3000 instrument and peak height was used to calculate percentage conversion of substrate to product.
For compound response testing, a 12 point compound concentration range was used. Compounds were acoustically dosed (Echo 555; Labcyte) into assay-ready plates using 11 half log intervals from 100 μM to […] plus a 12th point at 0.01 μM. Each well was backfilled with the required volume up to 120 nL of 100% DMSO to ensure a final 1% v/v DMSO concentration in the assay. In addition to the compound test wells, each plate carried maximum and minimum controls. Staurosporine at 10 μM was used to inhibit CDK2 activity for the minimum control. As a maximum control, 120 nL pure DMSO was added to the wells. Each plate contained at least 11 randomly distributed maximum and minimum controls. After the addition of compounds to the assay plates, the assay was performed as detailed above. Percentage conversion of substrate to product was used to calculate the effect of each compound on the kinase activity of CDK2/cyclinE. Enzyme inhibition model 3, non-linear curve fit analysis within OriginLab™ software was used to fit dose response curves and estimate the […]
concentration of compound required to reduce the enzyme activity to 50% of the conversion calculated from an average of the maximum controls.
Cell-based ELISA (Cellisa) for HSP72 expression
To follow HSP72 protein expression, a product of HSF1 transcriptional activity, Cellisa was developed. Cells (5-8x10^4cells/ml) were seeded into 96-well plates and incubated at 37 °C for 48 h.
Compounds were then added at a range of concentrations and incubated for 1 h before addition of 17-AAG (250 nM). Cells were then incubated for 18 h. The medium was removed and cells were fixed with fixing solution (4% paraformaldehyde, 0.3% TritonX-100 in PBS) for 30 min at 4 °C. The plates were then washed with 0.1% Tween-20/deionised water before blocking with 5% milk for 30 min at 37 °C. After washing the plates, HSP72 antibody (SPA-810, Enzo Life) was added for 1.5 h at 37 °C.
Following 4 x washes, the plates were incubated with europium-labelled anti-mouse antibody (0.6ug/ml) in Delfia assay buffer (Perkin Elmer) for 1 h at 37 °C. After washing the plates, Delfia enhancement solution was added, shaken for 10 min before reading in the Envision plate reader (Perkin-Elmer) with excitation at 340 nm and emission at 615 nm. The plates were washed again before protein determination using the BCA assay. The europium counts were normalised for the amount of protein in each well. The 50% inhibitory concentration value of the compound was then calculated and presented. […]

HSF1-stress pathway = test: ArrayScan HSP72 protein assay (HSF1-stress pathway inhibition, 17-AAG induced); settings: for IC50: Homo sapiens, U2OS, read-out: HSF1 IC50; for fold drop in potency in the HSF1-stress pathway assay / fold increase in HSF1-stress pathway inhibition: relative to compound 3
Protocol: To discover inhibitors of the HSF1-stress pathway, we employed an automated cellular imaging and analysis method (ArrayScan™) that quantifies the ability of a compound to suppress the expression of the HSF1-mediated inducible HSP70 isoform, HSP72.
U2OS cells (1500 per well) were plated in 40 μL of DMEM media (containing 10% fetal calf serum and 2 mM Glutamax T-1) in costar 384-well plates and left overnight at 37 °C and 5% CO2 to adhere.
treatment with compound, all wells except min wells were dosed with 17AAG diluted in DMSO (10
°C and 5% CO2. The following day the cells were fixed by addition of 20 μL/well of 12% formaldehyde with 1:1700 Hoechst in PBS for 10 min at room temperature. The fixative was decanted and the wells washed once with 50 μL of phosphate buffer saline (PBS).The PBS was subsequently aspirated, and the cells were permeabilized by addition of 20 μL/well of PBS 0.3% Triton X-100 for 20 min at room temperature. The wells were then washed with 80 μL of PBS prior to the addition of 20 μL of combined primary and secondary antibodies diluted in PBS (1:10 000 mouse anti-Hsp72
11001 molecular probes), for 2 h at room temperature. The wells were then washed with 50 μL of PBS. Finally, 50 μL of PBS was added to each well, and the plates were sealed ready to analyze.
Analysis was carried out using a Cellomics Arrayscan VTI instrument and the Cellomics Arrayscan Compartmental Analysis algorithm to measure cellular levels of HSP72.
100 μM to 0.1 μM plus a 12th point at 0.01 μM. Each well was backfilled with the required volume up to 120 nL of 100% DMSO to ensure a final 1% v/v DMSO concentration in the assay. In addition to the compound test wells, each plate carried maximum and minimum controls. Staurosporine at 10 μM was used to inhibit CDK2 activity for the minimum control. As a maximum control, 120 nL pure DMSO was added to the wells. Each plate contained at least 11 randomly distributed maximum and minimum controls. After the addition of compounds to the assay plates, the assay was performed as detailed above. Percentage conversion of substrate to product was used to calculate the effect of each compound on the kinase activity of CDK2/cyclinE. Enzyme inhibition model 3, non-linear curve fit analysis within OriginLab™ software was used to fit dose response curves and estimate the

CDK9/cyclin T1 = biological target: T1, CDK9/cyclin T1 (Homo sapiens, UniProt P50750); test: EMD Millipore (Eurofins) CDK panel; assay type: biochemical; settings: EMD Millipore screening panel, N = 1
T1 construct: purchased EMD Millipore screening panel (now Eurofins)
Protocol: Therefore 4,6-pyrimidine 3 was submitted to a EMD Millipore CDK panel to assess potency across the selected CDK family members (Table 3). Modest activity was observed against several CDKs; […]. […]. page 4: […]
(§1) mM Mg Acetate and [9-33P]-ATP (specific activity approx. 500 cpm/pmol, concentration as required). The reaction is initiated by the addition of the MgATP mix. After incubation for 40 minutes at room temperature, the reaction is stopped by the addition of 3% phosphoric acid solution. 10 μL of the reaction is then spotted onto a P30 filtermat and washed three times for 5 minutes in 75 mM phosphoric acid and once in methanol prior to drying and scintillation counting. […]
CDK9/cyclinT1 (h) is incubated with 8 mM MOPS pH 7.0, 0.2 mM EDTA, 100 μM […]
, 10 mM MgAcetate and […]
as §1, with “(specific” for “mM Mg Acetate and [9-33P]-ATP (specific”

U2OS cells = test: SRB cell growth inhibition assay; assay type: cell-based; settings: Homo sapiens, 96 h, read-out: SRB GI50
CDK9/CyclinT1 [1] = test: Adapta screen assay, Life Technologies; settings: ratio between CDK2/7/9, below limit of assay detection
[2] = system: HSF1-mediated HSP72 induction; test: Cell-based ELISA (Cellisa) for HSP72 expression; settings: Homo sapiens, U2OS, read-out: HSF1 IC50 (cell-ELISA, HSP72 induction inhibition)
CDK7/CyclinH/MAT1 = settings: ratio between CDK2/7/9; ref Yin et al., Mol. Cancer Ther., 2014, 13, 1442-1456; cited from earlier work
CDK9/CyclinT1 [3] = settings: ratio between CDK2/7/9; ref Yin et al., Mol. Cancer Ther., 2014, 13, 1442-1456; cited from earlier work

T1 sequence (P50750 whole entry): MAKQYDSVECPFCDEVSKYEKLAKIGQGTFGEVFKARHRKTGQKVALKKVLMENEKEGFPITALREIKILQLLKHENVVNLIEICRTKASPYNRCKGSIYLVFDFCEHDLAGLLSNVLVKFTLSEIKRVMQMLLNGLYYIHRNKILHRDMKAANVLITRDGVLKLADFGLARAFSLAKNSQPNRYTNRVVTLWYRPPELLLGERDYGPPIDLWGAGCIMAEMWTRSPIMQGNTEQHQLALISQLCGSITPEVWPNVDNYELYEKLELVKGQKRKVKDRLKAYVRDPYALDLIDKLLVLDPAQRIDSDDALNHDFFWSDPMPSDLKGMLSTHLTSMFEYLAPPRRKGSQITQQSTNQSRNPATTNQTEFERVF
T1 sequence (O60563 whole entry partner): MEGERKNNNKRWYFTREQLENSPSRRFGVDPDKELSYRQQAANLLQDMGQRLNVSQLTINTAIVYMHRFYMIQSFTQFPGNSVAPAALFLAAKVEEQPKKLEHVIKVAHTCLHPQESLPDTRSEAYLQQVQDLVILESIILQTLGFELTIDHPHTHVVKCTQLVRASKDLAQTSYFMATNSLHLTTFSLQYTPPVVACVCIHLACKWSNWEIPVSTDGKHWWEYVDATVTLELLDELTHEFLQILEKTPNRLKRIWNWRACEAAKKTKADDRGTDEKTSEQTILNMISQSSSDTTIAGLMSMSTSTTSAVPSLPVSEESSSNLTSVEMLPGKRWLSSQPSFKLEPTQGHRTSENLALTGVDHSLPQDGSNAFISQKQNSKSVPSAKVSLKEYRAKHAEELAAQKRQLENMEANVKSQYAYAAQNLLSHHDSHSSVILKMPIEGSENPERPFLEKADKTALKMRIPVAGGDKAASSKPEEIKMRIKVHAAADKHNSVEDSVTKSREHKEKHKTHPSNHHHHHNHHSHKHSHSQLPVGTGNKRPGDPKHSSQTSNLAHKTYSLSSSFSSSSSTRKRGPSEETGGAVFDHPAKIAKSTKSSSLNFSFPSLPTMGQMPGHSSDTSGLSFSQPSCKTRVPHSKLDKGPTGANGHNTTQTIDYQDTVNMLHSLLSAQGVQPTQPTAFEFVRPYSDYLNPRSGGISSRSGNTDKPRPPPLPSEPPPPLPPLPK

Compound | IC50 (CDK2/cyclinE) [nM] | IC50 (HSF1-stress pathway) [nM] | also measured
OCCc1ccc(Nc2cc(-n3cnc4ccccc43)ncn2)cc1 [Compound 1] | 1140 | 2000 | –
CN(C)CCOc1ccc(Nc2cc(-n3cnc4ccccc43)ncn2)cc1 [Compound 2] | 20000 | 1350 | fold difference in activity between the CDK2 and HSF1-stress pathway assays (HSF1-stress pathway; CDK2 IC50 versus HSF1 IC50): 15 fold
CN(C)CCCOc1ccc(Nc2cc(-n3cnc4ccccc43)ncn2)nc1 [Compound 4] | 368 | 165 | –
CN(C)CCOc1ccc(Nc2cc(-n3ccnc3)ncn2)nc1 [Compound 6] | 7100 | 6150 | fold drop in potency in the CDK2 assay (CDK2/cyclinE): 12 fold; fold drop in potency in the HSF1-stress pathway assay (HSF1-stress pathway): 77 fold; IC50 (CDK9/cyclin T1): 88 nM
CN(C)CCOc1ccc(Nc2cc(-n3ncc4ccccc43)ncn2)nc1 [Compound 7] | 29800 | > 30000 | –
CN(C)CCOc1ccc(Nc2cc(-n3ccc4ccccc43)ncn2)nc1 [Compound 8] | 4430 | 2330 | –
CN(C)CCOc1ccc(Nc2cc(-c3cnc4ccccc4c3)ncn2)nc1 [Compound 9] | > 100000 | 17600 | activity in the CDK2 assay (CDK2/cyclinE; compared to benzimidazole 3): inactive; fold drop in potency in the HSF1-stress pathway assay (HSF1-stress pathway): ~200 fold
CN(C)CCOc1ccc(Nc2cc(-n3cnc4cccnc43)ncn2)nc1 [Compound 10] | 1600 | 760 | –
CN(C)CCOc1ccc(Nc2cc(-n3cnc4ncccc43)ncn2)nc1 [Compound 11] | 161 | 28 | fold improvement in CDK2 inhibition (CDK2/cyclinE): 5 fold; fold increase in HSF1-stress pathway inhibition (HSF1-stress pathway): 3 fold
Cc1ccc2ncn(-c3cc(Nc4ccc(OCCN(C)C)cn4)ncn3)c2c1 [Compound 12] | 121 | 39 | –
Cc1nc2ccccc2n1-c1cc(Nc2ccc(OCCN(C)C)cn2)ncn1 [Compound 13] | 4610 | 4280 | fold drop in potency in the CDK2 assay (CDK2/cyclinE): > 7 fold; fold drop in potency in the HSF1-stress pathway assay (HSF1-stress pathway): > 7 fold
c1ccc(Nc2cc(-n3cnc4ccccc43)ncn2)nc1 [Compound 14] | 59 | 842 | fold improvement in CDK2 inhibition (CDK2/cyclinE): 10 fold; fold drop in potency in the HSF1-stress pathway assay (HSF1-stress pathway): 10 fold
CN(C)CCCc1ccc(Nc2cc(-n3cnc4ccccc43)ncn2)nc1 [Compound 15] | 690 | 198 | –
CN1CCC[C@H]1COc1ccc(Nc2cc(-n3cnc4ccccc43)ncn2)nc1 [Compound 16] | 535 | – | –
CN1CCC[C@@H]1COc1ccc(Nc2cc(-n3cnc4ccccc43)ncn2)nc1 [Compound 17] | 492 | – | IC50 (CDK9/cyclin T1): 8 nM
c1ccc2c(c1)ncn2-c1cc(Nc2ccc(OCCN3CCOCC3)cn2)ncn1 [Compound 18] | 554 | 295 | –
c1ccc2c(c1)ncn2-c1cc(Nc2ccc(OCCN3CCCCC3)cn2)ncn1 [Compound 19] | 358 | 57 | fold increase in HSF1-stress pathway inhibition (HSF1-stress pathway): 2 fold; IC50 (CDK9/cyclin T1): 8 nM
CN1CCC(Oc2ccc(Nc3cc(-n4cnc5ccccc54)ncn3)nc2)CC1 [Compound 20] | 1240 | 884 | –
CN1CCN(c2ccc(Nc3cc(-n4cnc5ccccc54)ncn3)nc2)CC1 [Compound 21] | 643 | 450 | IC50 (CDK9/cyclin T1): 22 nM
C[C@H]1CN(C)CCN1c1ccc(Nc2cc(-n3cnc4ccccc43)ncn2)nc1 [Compound 22] | 836 | 1380 | –
CN(C)C1CCN(c2ccc(Nc3cc(-n4cnc5ccccc54)ncn3)nc2)CC1 [Compound 23] | 776 | 610 | –
CN1CCC[C@H]1COc1ccc(Nc2cc(-n3cnc4ncccc43)ncn2)nc1 [Compound 24] | 146 | – | –
c1cnc2ncn(-c3cc(Nc4ccc(OCCN5CCCCC5)cn4)ncn3)c2c1 [Compound 25] | 55 | 15 | GI50 (U2OS cells; U2OS cells, single agent, average of two determinations): 5 nM; ratio of activity CDK9/CyclinT1 (CDK9/CyclinT1 [1]): 1; IC50 [2]: 15 nM
CC(C)c1c2cc(-c3ccnc(NC4CCC(NC5CCOCC5)CC4)n3)ccc2nn1C (stereo not drawn) [LY2857785] | – | – | ratio of activity CDK7/CyclinH/MAT1 (CDK7/CyclinH/MAT1): 22; ratio of activity CDK9/CyclinT1 (CDK9/CyclinT1 [3]): 1
CC(C)(C)c1cnc(CSc2cnc(NC(=O)C3CCNCC3)s2)o1 [SNS-032, reference compound] | – | – | GI50 (U2OS cells; U2OS): 370 nM; IC50 [2]: 750 nM
